As usually defined, the melting point is the temperature, or range, at which the solid turns liquid.

The source of these data is US20040077697A1, “2-Acylaminothiazole derivative or its salt” (priority 2001, published 2004).

One series concerns human CD34+ cell. The experiment in a line: Megakaryocyte colony formation promoting action. Conditions: MegaCult-C, 10 to 14 days, colonies per well, average of three. The class given is cell-based. Here is the method: <Megakaryocyte Colony Formation Promoting Action>
A human CD34^+ cell was cultured at 37° C. for 10 to 14 days in the presence of a test compound in a 2-well chamber slide by using MegaCult™-C (produced by StemCell Technologies). According to the manufacturer's instructions, the slide was dehydrated, fixed, and then stained with an anti-glycoprotein IIb/IIIa antibody. A colony containing three or more of the glycoprotein IIb/IIIa positive megakaryocyte cells was defined as one colony, and the number of colonies per well was microscopically measured. The assay was replicated thrice, and an average value was evaluated as the number of megakaryocyte colonies.

`COc1cc(OC)cc(C(=O)Nc2nc(-c3ccccc3)c(N3CCOCC3)s2)c1.Cl` yielded a melting point of 169 to 172 °C.
`Cl.O=C(Nc1nc(-c2ccc(F)cc2)c(N2CCN(C3CCCCC3)CC2)s1)c1ccc(O)c(Cl)c1`: the melting point is 270 to 272 °C (dec.).
`COc1cc(C(=O)Nc2nc(-c3ccc(F)cc3)c(N3CCN(C4CCCCC4)CC3)s2)ccn1` [Example 2, N-[5-(4-cyclohexylpiperazin-1-yl)-4-(4-fluorophenyl)thiazol-2-yl]-2-methoxyi sonicotinamide] yielded a melting point of 263 to 266 °C. For the same molecule, the “Number of megakaryocyte colonies” value in the series on human CD34+ cell (test compound 0.3 μM) came out at 5.2. In the series with human CD34+ cell (test compound 1.0 μM), the “Number of megakaryocyte colonies” value was found to be 19.0. The “Number of megakaryocyte colonies” value in the series with human CD34+ cell (test compound 3.0 μM) was determined as 34.8.
